Measurements from EPA's ToxRefDB 2.

What was measured:
rat [1] = details: Prenatal developmental toxicity study, wistar, Oral, Gavage/Intubation, dose end: 20 GD
rabbit = details: Prenatal developmental toxicity study, himalayan, Oral, Gavage/Intubation, dose end: 18 GD
rat [2] = details: Prenatal developmental toxicity study; wistar; Dermal; Topical; dose end: 15 GD; group: developmental; developmental / developmental malformation / bone / supernumerary
rat [3] = details: Prenatal developmental toxicity study, wistar, Oral, Gavage/Intubation, dose end: 19 GD
rat [4] = details: Multigenerational reproductive toxicity study, wistar, Oral, Gavage/Intubation, dose end: 2 generation
rat [5] = details: Combined chronic toxicity/carcinogenicity, sprague dawley, Oral, Feed, dose end: 2 year, group: systemic
rat [6] = details: Peri- and post-natal toxicity study (Segment III), sprague dawley, Oral, Gavage/Intubation, dose end: 43 PND
rat [7] = details: Developmental neurotoxicity study; sprague dawley; Oral; Gavage/Intubation; dose end: 42 PND; group: cannot be grouped; developmental / offspring survival late / [other] / [other]
rat [8] = details: Subchronic oral toxicity in rodents, fischer, Feed, dose end: 13 week
mouse [9] = details: Subchronic oral toxicity in rodents, b6c3f1, Feed, dose end: 13 week, group: systemic
mouse [10] = details: Developmental neurotoxicity study; cd1; Injection; Subcutaneous; dose end: 42 PND; group: cannot be grouped; systemic / in life observation / body weight / offspring (pup) weight
[11] = group: developmental, developmental / developmental malformation / bone / supernumerary
[12] = group: maternal, systemic / in life observation / clinical signs / abnormal respiratory sounds + systemic / in life observation / clinical signs / altered …
[13] = group: developmental, developmental / developmental malformation / bone / arthrogryposis + developmental / developmental malformation / bone / malformation, total
[14] = group: maternal, reproductive / reproductive performance / resorptions / resorptions + systemic / in life observation / body weight / body weight gain + …
[15] = group: developmental, developmental / developmental malformation / bone / delayed ossification + developmental / developmental malformation / bone / supernumerary…
[16] = group: maternal, systemic / in life observation / body weight / body weight gain + systemic / in life observation / food consumption / food consumption
[17] = group: maternal, systemic / in life observation / body weight / body weight gain + systemic / in life observation / food consumption / food consumption + …
[18] = group: offspring, systemic / in life observation / body weight / offspring (pup) weight + systemic / organ weight / spleen / absolute + systemic / organ …
[19] = group: parental, systemic / organ weight / liver / absolute + systemic / organ weight / thymus / absolute + systemic / organ weight / thymus / relative to …
[20] = group: reproductive, reproductive / reproductive performance / estrous cycle / length + reproductive / reproductive performance / estrous cycle / periodicity + …
[21] = systemic / in life observation / body weight / body weight
[22] = systemic / pathology microscopic / preputial gland / atrophy
[23] = group: developmental, developmental / developmental landmark / vaginal opening / vaginal opening
[24] = group: maternal, reproductive / reproductive performance / estrous cycle / [other] + reproductive / reproductive performance / estrous cycle / abnormal
[25] = group: parental, systemic / organ weight / adrenal gland / absolute
[26] = group: maternal, reproductive / reproductive performance / estrous cycle / abnormal
[27] = group: systemic, systemic / hematology / mean corpuscular (cell) volume (mcv) / mean corpuscular (cell) volume (mcv) + systemic / hematology / mean …
[28] = group: systemic, systemic / pathology microscopic / kidney / nephropathy
[29] = systemic / organ weight / liver / relative to body weight

OC(Cc1ccccc1Cl)(Cn1[nH]cnc1=S)C1(Cl)CC1 (stereo unspecified) [Prothioconazole]
LEL (rat [1]; [11]): 30 mg/kg/day
LOAEL (rat [1]; [11]): 30 mg/kg/day
NEL (rat [1]; [11]): < 30 mg/kg/day
NOAEL (rat [1]; [11]): < 30 mg/kg/day
LEL (rat [1]; [12]): 750 mg/kg/day
LOAEL (rat [1]; [12]): 750 mg/kg/day
NEL (rat [1]; [12]): 150 mg/kg/day
NOAEL (rat [1]; [12]): 150 mg/kg/day
LEL (rabbit; [13]): 10 mg/kg/day
LOAEL (rabbit; [13]): 10 mg/kg/day
NEL (rabbit; [13]): 2 mg/kg/day
NOAEL (rabbit; [13]): 2 mg/kg/day
LEL (rabbit; [14]): 50 mg/kg/day
LOAEL (rabbit; [14]): 50 mg/kg/day
NEL (rabbit; [14]): 10 mg/kg/day
NOAEL (rabbit; [14]): 10 mg/kg/day
LEL (rat [2]): 100 mg/kg/day
LOAEL (rat [2]): 100 mg/kg/day
NEL (rat [2]): < 100 mg/kg/day
NOAEL (rat [2]): < 100 mg/kg/day
LEL (rat [3]; [15]): 1000 mg/kg/day
LOAEL (rat [3]; [15]): > 1000 mg/kg/day
NEL (rat [3]; [15]): 200 mg/kg/day
NOAEL (rat [3]; [15]): ≥ 1000 mg/kg/day
LEL (rat [3]; [16]): 200 mg/kg/day
LOAEL (rat [3]; [16]): 200 mg/kg/day
NEL (rat [3]; [17]): 40 mg/kg/day
NOAEL (rat [3]; [17]): 40 mg/kg/day
LEL (rat [4]; [18]): 750 mg/kg/day
LOAEL (rat [4]; [18]): 750 mg/kg/day
NEL (rat [4]; [18]): 100 mg/kg/day
NOAEL (rat [4]; [18]): 100 mg/kg/day
LOAEL (rat [4]; [19]): 750 mg/kg/day
NEL (rat [4]; [19]): 10 mg/kg/day
NOAEL (rat [4]; [19]): 100 mg/kg/day
LEL (rat [4]; group: parental, systemic / organ weight / thymus / absolute + systemic / organ weight / thymus / relative to body weight + systemic / organ weight / seminal…): 100 mg/kg/day
LEL (rat [4]; [20]): 750 mg/kg/day
LOAEL (rat [4]; [20]): 750 mg/kg/day
NEL (rat [4]; [20]): 100 mg/kg/day
NOAEL (rat [4]; [20]): 100 mg/kg/day

C#C[C@]1(O)CC[C@H]2[C@@H]3CCc4cc(O)ccc4[C@H]3CC[C@@]21C [17alpha-Ethinylestradiol]
LEL (rat [5]; [21]): 0.00012 mg/kg/day
NEL (rat [5]; [21]): < 0.00012 mg/kg/day
LOAEL (rat [5]; [22]): 0.00021 mg/kg/day
NOAEL (rat [5]; [22]): < 0.00021 mg/kg/day
LEL (rat [6]; [23]): 0.005 mg/kg/day
LOAEL (rat [6]; [23]): > 0.005 mg/kg/day
NEL (rat [6]; [23]): 0.0025 mg/kg/day
NOAEL (rat [6]; [23]): ≥ 0.005 mg/kg/day
LEL (rat [6]; [24]): 0.005 mg/kg/day
LOAEL (rat [6]; [24]): > 0.005 mg/kg/day
NEL (rat [6]; [24]): 0.0025 mg/kg/day
NOAEL (rat [6]; [24]): ≥ 0.005 mg/kg/day
LEL (rat [6]; [25]): 0.0025 mg/kg/day
LOAEL (rat [6]; [25]): > 0.005 mg/kg/day
NEL (rat [6]; [25]): < 0.0025 mg/kg/day
NOAEL (rat [6]; [25]): ≥ 0.005 mg/kg/day

O=C([O-])c1ccccc1O.[Na+] [Sodium salicylate]
LEL (rat [7]): 12.5 mg/kg/day
LOAEL (rat [7]): > 150 mg/kg/day
NEL (rat [7]): 4.2 mg/kg/day
NOAEL (rat [7]): ≥ 150 mg/kg/day

Cc1cccc([N+](=O)[O-])c1 [3-Nitrotoluene]
LEL (rat [8]; [26]): 336 mg/kg/day
LOAEL (rat [8]; [26]): > 638 mg/kg/day
NEL (rat [8]; [26]): 172 mg/kg/day
NOAEL (rat [8]; [26]): ≥ 638 mg/kg/day
LOAEL (rat [8]; [27]): 336 mg/kg/day
NOAEL (rat [8]; [27]): 172 mg/kg/day
LEL (rat [8]; [28]): 46 mg/kg/day
NEL (rat [8]; [28]): < 46 mg/kg/day
LOAEL (mouse [9]; systemic / in life observation / body weight / body weight gain): 743 mg/kg/day
NOAEL (mouse [9]; systemic / in life observation / body weight / body weight gain + systemic / in life observation / food consumption / food consumption + …): 398 mg/kg/day
LEL (mouse [9]; [29]): 114 mg/kg/day
NEL (mouse [9]; [29]): < 114 mg/kg/day

O=P1(N(CCCl)CCCl)NCCCO1 (stereo unspecified) [Cyclophosphamide]
LEL (mouse [10]): 20 mg/kg/day
LOAEL (mouse [10]): > 45 mg/kg/day
NEL (mouse [10]): < 20 mg/kg/day
NOAEL (mouse [10]): ≥ 45 mg/kg/day
